Results: ChEMBL document CHEMBL1201862, “PubChem BioAssay data set” (2004)
Values joined by “and” are separate entries in the source; they are usually repeats but may differ in a detail not shown here. Identical values can stand only once. Active and inactive are the calls of the source. Cut-off read from the data, not from the text of the source, for most assays here: actives have a measured EC50 and inactives only a lower limit.

What was measured:
[1] = target: Cytochrome P450 3A4 (Homo sapiens, UniProt P08684);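 note: CYP3A4 tested as one member of a cytochrome P450 panel screen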
[2] = target: Cytochrome P450 2C9 (Homo sapiens, UniProt P11712)
[3] = target: T1, Heat shock factor protein 1 (Mus musculus, UniProt P38532); assay: inhibition of MG132-induced HSE-luciferase signal, confirmation, cell-based, NIH3T3, luminescence, dose retest (AID 2382); type: functional;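 note: NIH3T3 fibroblasts with HSF1-driven luciferase reporter stressed by proteasome inhibitor MG132; luminescence from HSF1-driven luciferase expression after 8 hours of MG132 stress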
T1 sequence (P38532 whole entry): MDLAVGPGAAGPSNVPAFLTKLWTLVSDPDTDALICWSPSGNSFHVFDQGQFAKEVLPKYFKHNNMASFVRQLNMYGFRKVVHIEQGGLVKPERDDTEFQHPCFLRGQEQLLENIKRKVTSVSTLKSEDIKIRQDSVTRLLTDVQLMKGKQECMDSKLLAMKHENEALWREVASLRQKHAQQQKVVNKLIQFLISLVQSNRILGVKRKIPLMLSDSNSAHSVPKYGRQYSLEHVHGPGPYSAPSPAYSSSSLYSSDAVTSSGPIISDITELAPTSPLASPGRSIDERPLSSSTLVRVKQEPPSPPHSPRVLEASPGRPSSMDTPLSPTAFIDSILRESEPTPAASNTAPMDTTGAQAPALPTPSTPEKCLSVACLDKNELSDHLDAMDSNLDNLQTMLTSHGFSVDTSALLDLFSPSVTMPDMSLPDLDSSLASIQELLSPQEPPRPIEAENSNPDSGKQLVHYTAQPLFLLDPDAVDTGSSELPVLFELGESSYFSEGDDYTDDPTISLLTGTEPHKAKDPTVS

[4] = target: T2, Streptokinase A (Streptococcus pyogenes serotype M1, UniProt P10520); assay: S. pyogenes streptokinase expression inhibitors, potency, dose response, plasminogen activation absorbance, OD405 (AID 1914); type: functional, Streptococcus pyogenes M1 GAS;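 note: secreted streptokinase activity via plasminogen activation per viability signal from cell pellet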
T2 sequence (P10520 whole entry): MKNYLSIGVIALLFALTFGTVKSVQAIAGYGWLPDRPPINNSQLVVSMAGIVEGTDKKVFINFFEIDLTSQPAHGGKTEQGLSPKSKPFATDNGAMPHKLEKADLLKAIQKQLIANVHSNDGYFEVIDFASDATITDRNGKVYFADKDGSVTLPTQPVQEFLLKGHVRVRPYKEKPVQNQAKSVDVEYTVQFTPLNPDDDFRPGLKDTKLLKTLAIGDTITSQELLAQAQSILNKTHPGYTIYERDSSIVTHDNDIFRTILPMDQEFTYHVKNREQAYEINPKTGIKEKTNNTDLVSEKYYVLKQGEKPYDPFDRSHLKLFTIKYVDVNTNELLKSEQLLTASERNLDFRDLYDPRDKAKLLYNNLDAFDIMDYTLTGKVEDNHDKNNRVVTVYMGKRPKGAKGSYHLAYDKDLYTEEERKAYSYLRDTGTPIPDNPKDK

[5] = tested on: Streptococcus sp. 'group A'; assay: growth inhibition of control SK(-) GAS strain, dose response, counter-screen for streptokinase expression inhibitor project, luminescence, kanamycin, BacTiterGlo, confirmation (AID 1900); type: functional, organism-based
[6] = tested on: Streptococcus; assay: Group A Streptococcus viability loss, dose response, counter-screen for streptokinase expression inhibitor project, luminescence, BacTiterGlo (AID 1915); type: functional, organism-based;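 note: potency for reduction of bacterial viability or growth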
[7] = inhibitors of intracellular T. cruzi replication, confirmation, NIH3T3 host cells, beta-gal luminescence (AID 2044); type: functional, cell-based;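 note: intracellular parasites grown in NIH/3T3 mouse fibroblasts as host cells; luminescent beta-galactosidase reporter signal from transgenic T. cruzi replicating inside host cells; inhibitors lower the luminescence signal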
[8] = cytotoxicity toward NIH3T3 fibroblasts, dose response, counter-screen, cell-based, ATP luminescence, mouse fibroblasts (AID 2010); type: functional;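 note: cells exposed to compound for about 90 hours before reading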
[9] = target: T3, Corticotropin-releasing factor receptor 2/Corticotropin-releasing factor-binding protein (Homo sapiens, UniProt P24387+Q13324); assay: activators of CRF receptor 2 with binding protein – uHTS hits, confirmation (AID 602473); type: functional; settings: read-out: EC50_Mean
T3 sequence (Q13324 whole entry): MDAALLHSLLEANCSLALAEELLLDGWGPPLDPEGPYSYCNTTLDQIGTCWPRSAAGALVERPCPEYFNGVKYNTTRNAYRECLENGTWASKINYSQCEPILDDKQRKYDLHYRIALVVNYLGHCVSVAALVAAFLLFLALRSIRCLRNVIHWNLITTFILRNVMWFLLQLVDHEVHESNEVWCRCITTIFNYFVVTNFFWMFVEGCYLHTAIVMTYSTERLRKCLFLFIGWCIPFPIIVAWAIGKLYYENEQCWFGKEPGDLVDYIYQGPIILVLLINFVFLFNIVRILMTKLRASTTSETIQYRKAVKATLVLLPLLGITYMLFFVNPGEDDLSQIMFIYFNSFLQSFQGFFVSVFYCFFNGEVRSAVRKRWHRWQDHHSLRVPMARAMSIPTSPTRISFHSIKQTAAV
T3 sequence (P24387 whole entry): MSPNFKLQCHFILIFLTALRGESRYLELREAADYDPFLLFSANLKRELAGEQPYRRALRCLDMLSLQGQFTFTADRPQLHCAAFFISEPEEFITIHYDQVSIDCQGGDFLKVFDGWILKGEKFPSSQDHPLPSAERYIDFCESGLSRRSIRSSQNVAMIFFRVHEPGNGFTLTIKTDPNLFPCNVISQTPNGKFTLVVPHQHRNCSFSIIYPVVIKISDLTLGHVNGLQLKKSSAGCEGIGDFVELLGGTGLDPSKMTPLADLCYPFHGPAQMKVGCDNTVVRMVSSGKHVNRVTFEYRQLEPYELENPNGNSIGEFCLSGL

Cytochrome P450 3A4, sequence (P08684 whole entry): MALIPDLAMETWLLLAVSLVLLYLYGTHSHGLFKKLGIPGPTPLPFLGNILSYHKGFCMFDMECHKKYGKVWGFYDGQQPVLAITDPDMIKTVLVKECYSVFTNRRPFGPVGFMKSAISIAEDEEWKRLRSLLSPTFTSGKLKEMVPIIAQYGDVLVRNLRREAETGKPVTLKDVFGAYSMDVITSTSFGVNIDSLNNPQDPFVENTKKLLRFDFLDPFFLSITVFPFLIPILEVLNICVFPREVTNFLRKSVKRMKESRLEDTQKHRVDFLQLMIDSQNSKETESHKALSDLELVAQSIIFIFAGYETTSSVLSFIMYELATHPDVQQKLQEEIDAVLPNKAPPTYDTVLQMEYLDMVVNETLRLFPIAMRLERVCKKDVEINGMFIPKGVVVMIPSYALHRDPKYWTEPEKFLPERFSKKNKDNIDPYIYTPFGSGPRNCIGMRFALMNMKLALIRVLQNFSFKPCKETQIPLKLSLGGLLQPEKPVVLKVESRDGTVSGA
Cytochrome P450 2C9, sequence (P11712 whole entry): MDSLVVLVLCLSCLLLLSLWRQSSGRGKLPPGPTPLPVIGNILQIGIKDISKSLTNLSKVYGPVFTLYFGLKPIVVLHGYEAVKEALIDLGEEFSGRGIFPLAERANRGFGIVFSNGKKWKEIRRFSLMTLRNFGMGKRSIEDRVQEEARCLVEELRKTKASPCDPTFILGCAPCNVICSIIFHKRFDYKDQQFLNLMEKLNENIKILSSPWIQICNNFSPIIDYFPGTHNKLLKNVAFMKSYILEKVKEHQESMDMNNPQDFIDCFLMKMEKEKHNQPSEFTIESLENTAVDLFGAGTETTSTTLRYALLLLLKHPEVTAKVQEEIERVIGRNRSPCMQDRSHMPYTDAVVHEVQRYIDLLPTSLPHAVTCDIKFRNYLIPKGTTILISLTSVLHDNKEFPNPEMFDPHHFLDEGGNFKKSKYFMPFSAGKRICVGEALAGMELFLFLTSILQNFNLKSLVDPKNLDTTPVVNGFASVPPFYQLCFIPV

CC(C)(C)c1cccc(Oc2nn[nH]n2)c1
AC50 [1]: 22.4 µM (inconclusive) | AC50 [2]: 25.1 µM (inconclusive)

C#CCCCO/N=C1/C[C@@H](O)[C@@H](O)[C@@H]2[C@@H]3C(=O)N(C[C@@H]4CCCO4)C(=O)[C@H]3CC[C@@H]12
AC50 [1]: 3.98 µM (inconclusive)

CC(C)Oc1ccc2c(=O)c3cc(C(=O)O)ccc3oc2c1
AC50 [2]: 31.6 µM (inconclusive)

C[C@H](NC(=O)c1ccc(Cl)c(Cl)c1)c1ccc(-c2ccccc2)cc1
AC50 [2]: 3.16 µM (inconclusive)

COc1ccc(-c2ccc3c(n2)CCCN3C[C@H](O)CN2CCCc3nc(-c4ccc(Br)cc4)ccc32)cc1
AC50 [2]: 3.98 µM (inconclusive) and 3.16 µM (inconclusive)

Fc1ccc(-c2[nH]ncc2-c2nnnn2-c2ccccc2)c(F)c1
AC50 [1]: 10 µM (inconclusive)

O=C1N=C(N2CCCC2)S/C1=C\C=C\c1ccccc1
EC50 [3]: < 0.16 µM (active)

N#Cc1c(-c2ccccc2)nc(SCc2ccc(Cl)cc2)[nH]c1=O
EC50 [4]: 5.41 µM (active)

N#Cc1c(O)nc(SCc2ccc(Cl)cc2)nc1-c1ccccc1
EC50 [5]: 11.4 µM (active) | EC50 [6]: 14.1 µM (active)

CC(=O)N=C(Nc1ccc2ccccc2c1)Nc1nc(C)cc(C)n1
EC50 [3]: 146 µM (active)

CCC(C)NCCOCCOc1ccc(F)cc1 (configuration not stated)
EC50 [7]: 0.806 µM (active) | EC50 [8]: 10.7 µM (active)

O=C(c1cc(-c2ccncc2)nc2ccccc12)N1CCN(c2ccccn2)CC1
EC50 [7]: 1.1 µM (active) | EC50 [8]: 10 µM (active)

CCN(CC)C(=O)c1cnc2ccc(S(=O)(=O)Nc3cc(C)cc(C)c3)cc2c1O
EC50 [9]: 4.85 µM (active)

O=c1c(-c2cc(F)cc(F)c2)nc2cnc(Oc3ccccc3)nc2n1C[C@H]1CCCO1
AC50 [1]: 15.8 µM (inconclusive)

Cc1cc(/C=C2\SC(=S)NC2=O)c(C)n1-c1cccc(O)c1
EC50 [5]: 6.9 µM (active) | EC50 [6]: 49.7 µM (inconclusive)

Cc1ccc(C)c(NC(=O)NCc2ccc(Cl)cc2)c1
AC50 [1]: 2.51 µM (inconclusive)

O=C(COc1c(Cl)cccc1Cl)Nc1ccccc1N1CCCC1
EC50 [5]: 16.4 µM (active) | EC50 [4]: 16.1 µM (active) | EC50 [6]: > 150 µM (not active)

O=C(Cc1ccccc1)NN1C(=O)/C(=C/c2c[nH]c3ccccc23)SC1=S
EC50 [5]: 20.4 µM (active) | EC50 [4]: > 150 µM (not active) | EC50 [6]: > 150 µM (not active)

Cc1ccc(S(=O)(=O)Nc2cc(C)c(O)c(S(=O)(=O)c3ccc(C)cc3)c2)cc1
EC50 [5]: 39.6 µM (active) | EC50 [4]: > 150 µM (not active) | EC50 [6]: > 150 µM (not active)

CC(C)Sc1cc(N2CCCC2)nc(-c2ccc(F)cc2)n1
EC50 [5]: 6.81 µM (active) | EC50 [4]: 10.9 µM (active) | EC50 [6]: 23.8 µM (active) | AC50 [1]: 17.8 µM (inconclusive) | AC50 [2]: 7.94 µM (inconclusive)

Cc1ccc2c(CC(=O)Nc3sccc3C(N)=O)coc2c1
EC50 [9]: > 53 µM (inactive)

CCc1ccc(NC(S)=NC2CC3CCCC(C2)N3Cc2cccs2)cc1 (configuration not stated)
EC50 [7]: 5.85 µM (active) | EC50 [8]: > 60 µM (not active)

CCOC(=O)CC1C(=O)NCCN1S(=O)(=O)c1ccc(Cl)c(Cl)c1 (configuration not stated)
AC50 [1]: 12.6 µM (inconclusive)

CCOC(=O)c1ccc2ncc(C(C)=O)c(O)c2c1
EC50 [3]: > 195 µM (not active)

COc1ccc(-c2noc(-c3ccccc3-c3ccccc3)n2)cc1
EC50 [5]: 32.9 µM (active) | EC50 [4]: 17.8 µM (active) | EC50 [6]: > 150 µM (not active)

C=CCn1c(NCc2cc(Cl)ccc2O)nc2ccccc21
EC50 [5]: > 150 µM (not active) | EC50 [4]: > 150 µM (not active) | EC50 [6]: > 150 µM (not active)

CCOC(=O)Cn1cc(C=C2C(=O)N(C)C(=O)N(C)C2=O)c2ccccc21
EC50 [9]: 5.34 µM (active)

O=C(OC(C(=O)NCC1CCCO1)c1ccc(F)cc1)c1cccs1 (configuration not stated)
EC50 [3]: > 195 µM (not active)

O=c1c2ccc([N+](=O)[O-])cc2ncn1CCOc1cccc(Br)c1
EC50 [7]: 0.212 µM (active) | EC50 [8]: > 60 µM (not active)

CCOC(=O)CCCNS(=O)(=O)c1c(C)ccc2nsnc12
EC50 [3]: 53.4 µM (active)

Cc1cc(C(F)(F)F)c(C#N)c(SCC(=O)Nc2nc3cc(Br)ccc3s2)n1
EC50 [5]: 3.48 µM (active) | EC50 [4]: 17.5 µM (active) | EC50 [6]: > 150 µM (not active)

O=C(c1cccs1)N1N=C(c2ccccc2)CC1c1ccccc1O (configuration not stated)
EC50 [7]: 2.84 µM (active) | EC50 [8]: > 60 µM (not active)

O=C(CN1CCN(c2ccc(O)cc2)CC1)Nc1cc(S(=O)(=O)N2CCCC2)ccc1Cl
EC50 [3]: > 195 µM (not active)

CN1CCC(N(C)CC(=O)Nc2cccc(Oc3ccccc3)c2)CC1
EC50 [7]: < 0.1 µM (active) | EC50 [8]: > 60 µM (not active)

Cc1cc(NC(=O)CN2C(=O)c3ccccc3C2=O)no1
EC50 [5]: > 150 µM (not active) | EC50 [4]: > 150 µM (not active) | EC50 [6]: > 150 µM (not active)

NC(=O)NC(=O)CSc1nc2sc(-c3ccccc3)cc2c(=O)n1-c1ccccc1
EC50 [5]: 2.21 µM (active) | EC50 [6]: 4.54 µM (active)

Nc1c2c(nc3ccccc13)CSCC2
EC50 [7]: 3.33 µM (active) | EC50 [8]: > 30 µM (not active)

CN1CCN(c2ccncc2S(=O)(=O)N2CCN(C)CC2)CC1
AC50 [1]: 3.16 µM (inconclusive)

O=C(NCCN1CCCCC1)c1ccc(I)cc1
AC50 [2]: 31.6 µM (inconclusive)

C=CCSc1nc2ccccc2c(=O)n1Cc1ccccc1
EC50 [5]: 15.7 µM (active) | EC50 [4]: > 150 µM (not active) | EC50 [6]: 99.4 µM (active)

CO[C@@H]1COC(=O)C/C=C\[C@@H](C)[C@@H]2C=C[C@H](O)[C@@H](COC(=O)CCC[C@H]1C)O2
AC50 [1]: 3.98 µM (inconclusive)

Nc1c(C(=O)NCc2ccccc2)sc2nc3c(cc12)C(=O)CCC3
AC50 [1]: 25.1 µM (inconclusive) | AC50 [2]: 1.41 µM (inconclusive)

CC(Nc1nc(-c2ccccc2O)nc2ccccc12)c1ccccc1 (configuration not stated)
EC50 [5]: 9.99 µM (active) | EC50 [4]: 8.55 µM (active) | EC50 [6]: > 150 µM (not active)

NC(CC(=O)Nc1ccc(F)cc1)=NO
EC50 [3]: > 195 µM (not active)

O=C(CNS(=O)(=O)c1ccccc1F)Nc1ccc(N2CCOCC2)cc1
EC50 [3]: > 195 µM (not active)

C=CCn1c(=O)c(C(=O)NCCN(CC)CC)c(O)c2ccccc21
AC50 [2]: 8.91 µM (inconclusive)

C=CCNCCOCCOc1ccc(C)cc1[N+](=O)[O-]
AC50 [1]: 12.6 µM (inconclusive)

NC(=S)N/N=C/c1ccc2ccccc2c1
EC50 [7]: 0.858 µM (active) | EC50 [8]: > 60 µM (not active)

Oc1ccc2ccccc2c1CN1CCCCC1
EC50 [9]: 3.84 µM (active)

O=C(/C=C/c1ccc([N+](=O)[O-])cc1)Oc1ccc(/C=N/NC(=O)c2ccncc2)cc1
EC50 [7]: 9.25 µM (active) | EC50 [8]: > 60 µM (not active)

Cc1sc(N)c(C(=O)c2cccc(C(F)(F)F)c2)c1C
AC50 [1]: 12.6 µM (inconclusive)
